{"source": "paper PMC7281072", "about": "(Cancers, 2020)", "key": {"pERK1,2 [1]": {"system": "pERK1,2", "experiment": "Western immunoblotting densitometry, pERK1,2, SKOV-3 cells", "assay_type": "cell-based, human", "settings": "panel A lower set, cell line not given, 25 μM, 3h; control ratio 1.78"}, "[2]": {"system": "UWB1.289+BRCA1 cancer cell line", "experiment": "cells", "settings": "Homo sapiens, 48 h"}, "OVCAR-3 cancer cell line [3]": {"system": "OVCAR-3 cancer cell line"}, "ERK1,2 phosphorylation": {"system": "ERK1,2 phosphorylation", "experiment": "ERK1/2 phosphorylation ELISA, UWB1.289 cells", "assay_type": "cell-based, human", "settings": "for Vmax ± SE, pERK 1/2 inhibition: Michaelis Menten model; for IC50: Homo sapiens, read-out: IC50, pERK 1/2 inhibition"}, "AKT1,2 phosphorylation": {"system": "AKT1,2 phosphorylation", "experiment": "AKT phosphorylation ELISA, OVCAR-5 cells", "assay_type": "cell-based, human", "settings": "for Vmax ± SE, pAKT 1/2 inhibition: Michaelis Menten model; for IC50: Homo sapiens, read-out: IC50, pAKT 1/2 inhibition"}, "pAKT [4]": {"system": "pAKT", "experiment": "Western immunoblotting densitometry, pAKT, SKOV-3 cells", "assay_type": "cell-based, human", "settings": "25 μM; for ratio [pAKT]/[GAPDH] band intensity: SKOV-3 cells; for ratio [pAKT]/[GAPDH] band intensity, single blot (panel A): panel A lower set, cell line not given, control ratio 0.996"}, "OVCAR-3 cancer cell line [5]": {"system": "OVCAR-3 cancer cell line", "experiment": "cells", "settings": "Homo sapiens, OVCAR-3, 48 h"}, "OVCAR-5 cancer cell line": {"system": "OVCAR-5 cancer cell line", "experiment": "cells", "settings": "Homo sapiens, OVCAR-5, 48 h"}, "pERK1,2 [6]": {"system": "pERK1,2", "experiment": "Western immunoblotting densitometry, pERK1,2, OVCAR-3 cells", "assay_type": "cell-based, human", "settings": "25 μM; for ratio [pERK1+pERK2]/[GAPDH] band intensity: OVCAR-3 cells; for ratio [pERK1+pERK2]/[GAPDH] band intensity, single blot (panel A): panel A upper set, cell line not given"}, "[7]": {"system": "UWB1.289 cancer cell line", "experiment": "cells", "settings": "Homo sapiens, UWB1289, 48 h"}, "pAKT [8]": {"system": "pAKT", "experiment": "Western immunoblotting densitometry, pAKT, OVCAR-3 cells", "assay_type": "cell-based, human", "settings": "25 μM; for ratio [pAKT]/[GAPDH] band intensity: OVCAR-3 cells; for ratio [pAKT]/[GAPDH] band intensity, single blot (panel A): panel A upper set, cell line not given, control ratio 1.21"}, "SK-OV-3 cancer cell line": {"system": "SK-OV-3 cancer cell line", "experiment": "cells", "settings": "Homo sapiens, SK-OV-3, 48 h"}, "[9]": {"system": "OVCAR-5 human ovarian adenocarcinoma xenograft", "parameters": "species or system CB17 SCID mice", "settings": "mouse, in vivo"}, "[10]": {"settings": "read-out: GI50 (50% Growth Inhibition)"}, "[11]": {"settings": "read-out: IC50 (cytotoxic effect)"}}, "note": "Like-named read-outs stand apart in the source and are kept apart here.", "data": [{"smiles": "C[C@]12CC[C@H]3[C@@H](CCC4=CC(=O)NCC[C@@]43C)[C@@H]1CC[C@@H]2OC(=O)CCOc1ccc(N(CCCl)CCCl)cc1", "note": "[ENGA-L06E, 5a,7a-dimethyl-2-oxo-2,3,4,5,5a,5b,6,7,7a,8,9,10,10a,10b,11,12-hexa decahydrocyclopenta [5, 6] naphtho [1,2-d] azepin-8-yl 3-(4-(bis(2-chloroethyl)amino)phenoxy) propanoate]", "values": [{"measurement": "ratio [pERK1+pERK2]/[GAPDH] band intensity, single blot (panel A)", "setting": "pERK1,2 [1]", "value": 0.39}, {"measurement": "GI50", "setting": "[2]; [10]", "value": "12 ± 0.7", "unit": "µM"}, {"measurement": "IC50", "setting": "[2]; [11]", "value": "40 ± 3.5", "unit": "µM"}, {"measurement": "TGI (Total Growth Inhibition)", "setting": "OVCAR-3 cancer cell line [3]", "value": "32 ± 1.8", "unit": "μΜ"}, {"measurement": "Vmax ± SE, pERK 1/2 inhibition", "setting": "ERK1,2 phosphorylation; 15 min", "value": "76.21 ± 2.11"}, {"measurement": "Vmax ± SE, pERK 1/2 inhibition", "setting": "ERK1,2 phosphorylation; 60 min", "value": "89.63 ± 2.53"}, {"measurement": "IC50", "setting": "ERK1,2 phosphorylation; UWB1289, 0.25 h, 15 min", "value": 6.81, "unit": "µM"}, {"measurement": "IC50", "setting": "ERK1,2 phosphorylation; UWB1289, 0.5 h, 30 min", "value": 4.12, "unit": "µM"}, {"measurement": "IC50", "setting": "ERK1,2 phosphorylation; UWB1289, 1 h, 60 min", "value": 3.53, "unit": "µM"}, {"measurement": "Vmax ± SE, pAKT 1/2 inhibition", "setting": "AKT1,2 phosphorylation; 15 min", "value": "57.76 ± 3.49"}, {"measurement": "Vmax ± SE, pAKT 1/2 inhibition", "setting": "AKT1,2 phosphorylation; 30 min", "value": "59.24 ± 0.49"}, {"measurement": "Vmax ± SE, pAKT 1/2 inhibition", "setting": "AKT1,2 phosphorylation; 60 min", "value": "62.49 ± 0.25"}, {"measurement": "IC50", "setting": "AKT1,2 phosphorylation; 0.25 h, 15 min", "value": "> 50", "unit": "µM"}, {"measurement": "IC50", "setting": "AKT1,2 phosphorylation; 0.5 h, 30 min", "value": 49.8, "unit": "µM"}, {"measurement": "IC50", "setting": "AKT1,2 phosphorylation; 1 h, 60 min", "value": 29.5, "unit": "µM"}, {"measurement": "ratio [pAKT]/[GAPDH] band intensity", "setting": "pAKT [4]; 15min, control ratio 0.98", "value": 0.94}, {"measurement": "ratio [pAKT]/[GAPDH] band intensity", "setting": "pAKT [4]; 30min, control ratio 0.98", "value": 0.78}, {"measurement": "ratio [pAKT]/[GAPDH] band intensity", "setting": "pAKT [4]; 1h, control ratio 1.02", "value": 0.73}, {"measurement": "ratio [pAKT]/[GAPDH] band intensity", "setting": "pAKT [4]; 3h, control ratio 0.99", "value": 0.65}, {"measurement": "ratio [pAKT]/[GAPDH] band intensity", "setting": "pAKT [4]; 12h, control ratio 0.94", "value": 0.58}, {"measurement": "ratio [pAKT]/[GAPDH] band intensity, single blot (panel A)", "setting": "pAKT [4]; 1h", "value": 0.40}, {"measurement": "ratio [pAKT]/[GAPDH] band intensity, single blot (panel A)", "setting": "pAKT [4]; 3h", "value": 0.20}, {"measurement": "GI50", "setting": "OVCAR-3 cancer cell line [5]; [10]", "value": "22 ± 0.9", "unit": "µM"}, {"measurement": "IC50", "setting": "OVCAR-3 cancer cell line [5]; [11]", "value": "43 ± 2.9", "unit": "µM"}, {"measurement": "GI50", "setting": "OVCAR-5 cancer cell line; [10]", "value": "25 ± 1.4", "unit": "µM"}, {"measurement": "IC50", "setting": "OVCAR-5 cancer cell line; [11]", "value": "65 ± 3.4", "unit": "µM"}, {"measurement": "ratio [pERK1+pERK2]/[GAPDH] band intensity", "setting": "pERK1,2 [6]; 30min, control ratio 1.71", "value": 1.40}, {"measurement": "ratio [pERK1+pERK2]/[GAPDH] band intensity", "setting": "pERK1,2 [6]; 1h, control ratio 1.65", "value": 0.96}, {"measurement": "ratio [pERK1+pERK2]/[GAPDH] band intensity", "setting": "pERK1,2 [6]; 3h, control ratio 1.99", "value": 1.11}, {"measurement": "ratio [pERK1+pERK2]/[GAPDH] band intensity", "setting": "pERK1,2 [6]; 6h, control ratio 1.85", "value": 0.54}, {"measurement": "ratio [pERK1+pERK2]/[GAPDH] band intensity", "setting": "pERK1,2 [6]; 12h, control ratio 1.82", "value": 0.49}, {"measurement": "ratio [pERK1+pERK2]/[GAPDH] band intensity", "setting": "pERK1,2 [6]; 24h, control ratio 1.92", "value": 0.58}, {"measurement": "ratio [pERK1+pERK2]/[GAPDH] band intensity, single blot (panel A)", "setting": "pERK1,2 [6]; 1h, control ratio 1.85", "value": 0.74}, {"measurement": "ratio [pERK1+pERK2]/[GAPDH] band intensity, single blot (panel A)", "setting": "pERK1,2 [6]; 3h, control ratio 1.85", "value": 1.02}, {"measurement": "GI50", "setting": "[7]; [10]", "value": "3.5 ± 0.4", "unit": "µM"}, {"measurement": "IC50", "setting": "[7]; [11]", "value": "20 ± 1.1", "unit": "µM"}, {"measurement": "ratio [pAKT]/[GAPDH] band intensity", "setting": "pAKT [8]; 30min, control ratio 1.23", "value": 0.92}, {"measurement": "ratio [pAKT]/[GAPDH] band intensity", "setting": "pAKT [8]; 1h, control ratio 1.14", "value": 0.62}, {"measurement": "ratio [pAKT]/[GAPDH] band intensity", "setting": "pAKT [8]; 3h, control ratio 1.27", "value": 0.61}, {"measurement": "ratio [pAKT]/[GAPDH] band intensity", "setting": "pAKT [8]; 6h, control ratio 1.26", "value": 0.54}, {"measurement": "ratio [pAKT]/[GAPDH] band intensity", "setting": "pAKT [8]; 12h, control ratio 1.18", "value": 0.50}, {"measurement": "ratio [pAKT]/[GAPDH] band intensity", "setting": "pAKT [8]; 24h, control ratio 1.29", "value": 0.59}, {"measurement": "ratio [pAKT]/[GAPDH] band intensity, single blot (panel A)", "setting": "pAKT [8]; 1h", "value": 0.52}, {"measurement": "ratio [pAKT]/[GAPDH] band intensity, single blot (panel A)", "setting": "pAKT [8]; 3h", "value": 0.22}, {"measurement": "GI50", "setting": "SK-OV-3 cancer cell line; [10]", "value": "18 ± 0.9", "unit": "µM"}, {"measurement": "IC50", "setting": "SK-OV-3 cancer cell line; [11]", "value": "76 ± 7.5", "unit": "µM"}, {"measurement": "Median Overall Survival (OS)", "setting": "[9]", "value": 98, "unit": "days"}, {"measurement": "Progression Free Survival (PFS)", "setting": "[9]", "value": 27, "unit": "days"}, {"measurement": "Response Rate (RR)", "setting": "[9]", "value": 100, "unit": "%"}, {"measurement": "Cures (mice alive for 120 days after tumor inoculation)", "setting": "[9]; ip", "value": "0/5"}, {"measurement": "MST (mean survival time)", "setting": "[9]; ip", "value": "93.2 ± 2.4", "unit": "p < 0.01 Days"}, {"measurement": "T/C% (mean survival time of treated versus saline controls)", "setting": "[9]; ip", "value": 184.8, "unit": "%"}, {"measurement": "TI% (Tumor Inhibition)", "setting": "[9]; ip", "value": 117.0, "unit": "%"}, {"measurement": "size of the primary tumor", "setting": "[9]; ip", "value": "220 ± 19.1", "unit": "mm^3"}]}]}
